Test results reported in paper PMC2920546, “Preclinical Pharmacology of BA-TPQ, a Novel Synthetic Iminoquinone Anticancer Agent” (Marine Drugs, 2010).

Tests used:
[1] = Pharmacokinetics, excretion and strain comparison stated for CD-1 and nude mice together; assay type: in vivo
Procedure: (§1) Female ICR/CD-1 (18–20 g) mice were purchased from Harlan Laboratories (Indianapolis, IN), and female nude mice (nu/nu; 4–6 weeks) were purchased from Frederick Cancer Research and Development Center (Frederick, MD). All animal use and care procedures were approved by the Institutional Animal Care and Use Committee (IACUC) of the University of Alabama at Birmingham. All animals were fed with commercial diet and water ad libitum and were on an alternating 12 h light/dark cycle.
(§2) CD-1 and nude mice were randomly divided into groups of three, and were dosed either intravenously (5 mg/kg) or intraperitoneally (10 mg/kg) with BA-TPQ in PEG 400:ethanol:0.9% saline (57.1%:14.3%:28.6%). Before dosing, and at 5, 15, 30, 60 min, and 2, 4, 8, and 24 h after dosing, groups of animals (three/time point) were anesthetized, and blood was collected from the retro-orbital sinus into heparinized tubes. Plasma was obtained by centrifuging the blood samples at 14,000 rpm for 15 min. BA-TPQ was then extracted from plasma and stored at −80 °C. The brain, heart, kidneys, liver, lungs, and spleen were also collected at the same time points during necropsy, blotted on Whatman No. 1 filter paper, trimmed of extraneous fat and connective tissue, weighed, and homogenized in phosphate-buffered saline. The resulting homogenates were stored at −80 °C until further processing and analysis. Urine and feces were collected for 24 hr from mice housed in metabolic cages. After collection, the cages were also washed twice with 200 μL PBS, and the washes were collected and analyzed separately. The total urine was determined as the amount from the urine plus washes 1 and 2. Feces were homogenized in PBS, then extracted using the same procedure used for tissues.
(§3) Six hundred microliters of acetonitrile was added to 200 μL of plasma, urine, cage washes (first and second), or tissue/feces homogenate in an Eppendorf tube to precipitate proteins. After centrifugation at 14,000 rpm for 10 min, the supernatant was transferred to a glass tube and evaporated to dryness using a TurboVap® LV Concentration Workstation (Caliper Lifesciences, Hopkinton, MA). The residue was reconstituted with 500 μL ethyl acetate, sonicated for 10 min, and vortexed for 10 sec. Samples were then centrifuged again and the resulting supernatant was transferred to a new glass tube and evaporated to dryness. Finally, samples were reconstituted in 100 μL mobile phase, and 50 μL was injected into the HPLC system for analysis.
(§4) The averages of the BA-TPQ concentration in plasma and tissues following intravenous and intraperitoneal administration to three animals per time point were used for pharmacokinetic analyses using a two-compartmental model and a non-compartment model, respectively. The following pharmacokinetic parameters were estimated using Phoenix WinNonlin 6.0 (Mountain View, CA): area under the concentration-time curve (AUC, h·μg/mL), half-life (T½, h), maximum concentration (Cmax, μg/mL), time of the maximum concentration (Tmax, h), and clearance (CL, mL/h/kg), as applicable. Bioavailability (X) was calculated as X= [AUCip × doseiv]/[AUCiv × doseip].

[2] = Stability of BA-TPQ in mouse plasma; assay type: in vitro ADME; conditions: for Amount Remaining: mouse plasma
Procedure: The stability of BA-TPQ was evaluated at two concentrations (0.5 and 5.0 μM). The compound was incubated under the following conditions: 37 °C for 0, 1, 2, 4, and 8 h; 4 °C for 0, 1, 4, 8, and 24 h; and −80 °C for 0, 1, 2, and 4 weeks. At the designated time points, the samples were extracted and analyzed using the established HPLC analytical method. The stability of the iminoquinone was assessed by comparing the initial concentration (time 0) with the final concentration following incubation of the compound at the noted temperatures, and expressing this difference as a percentage of the initial concentration.

[3] = Pharmacokinetics and tissue distribution in CD-1 mice; assay type: in vivo
Procedure: as §1, §2, §3, §4

[4] = IV 5 mg/kg, both strains, 24 hr collection
[5] = female, ICR/CD-1, mouse, liver, IV 5 mg/kg
[6] = female, ICR/CD-1, mouse, lungs, IP 10 mg/kg
[7] = female, ICR/CD-1, mouse, lungs, IV 5 mg/kg
[8] = female, mouse, brain, IP 10 mg/kg
[9] = female, mouse, brain, IV 5 mg/kg
[10] = female, mouse, heart, IP 10 mg/kg
[11] = female, mouse, heart, IV 5 mg/kg
[12] = female, mouse, kidneys, IP 10 mg/kg
[13] = female, mouse, kidneys, IV 5 mg/kg
[14] = female, mouse, liver, IP 10 mg/kg
[15] = female, mouse, lungs, IV 5 mg/kg
[16] = female, mouse, plasma, IP 10 mg/kg
[17] = female, mouse, plasma, IV 5 mg/kg
[18] = female, mouse, spleen, IP 10 mg/kg
[19] = female, mouse, spleen, IV 5 mg/kg

## O=C1C(NCc2ccccc2)=CC2=NCCc3c[nH]c1c32 [BA-TPQ, 7-(benzylamino)-1,3,4,8-tetrahydropyrrolo[4,3,2-de]quinolin-8(1H)-one]
[1]; IP 10 mg/kg
  Amount excreted in the feces: less than 1%
[1]; IP 10 mg/kg, first 24 h after dosing
  Amount excreted in the urine: less than 0.02 % of the administered dose
[1]; IP injection
  AUC in the brain, nude mice versus CD-1 mice: ~ 5 fold
  Accumulation in the liver, nude mice versus CD-1 mice: ~ 18 fold
[1]; IV 5 mg/kg, both CD-1 and nude mice
  Detectability in the lungs at 24 h: still detectable
[1]; [4]
  Amount excreted in feces: less than 1 % of the administered dose
  Amount excreted in the urine: less than 0.1 % of the administered dose
[1]; IV 5 mg/kg, either strain of mice
  Detectability in plasma: no longer detectable in plasma after 2 h
[1]; IV injection
  Exposure of the heart (AUC), nude mice versus CD-1 mice: approximately 6 fold
[1]; female, CD-1 and nude (nu/nu), mouse, plasma, ip, 10 mg/kg, mice, IP injection, read-out: Intraperitoneal bioavailability (authors' overall estimate)
  bioavailability: ~70%
[1]; mice
  Blood-brain barrier passage (AUC in brain comparable to plasma): can cross the blood-brain barrier
[1]; mice, IP injection
  Intraperitoneal bioavailability (authors' overall estimate): > 70%
[2]; 37 °C, 4 °C and −80 °C, 0.5 μM and 5.0 μM
  Stability in mouse plasma (in words): very stable
[2]; 4 °C, 24 hr, 0.5 μM
  Amount Remaining: 94%
[2]; 4 °C, 24 hr, 5.0 μM
  Amount Remaining: 117%
[2]; 37 °C, 8 hr, 0.5 μM
  Amount Remaining: 92%
[2]; 37 °C, 8 hr, 5.0 μM
  Amount Remaining: 114%
[2]; −80 °C, 4 weeks, 0.5 μM
  Amount Remaining: 95%
[2]; −80 °C, 4 weeks, 5.0 μM
  Amount Remaining: 100%
[3]; IP 10 mg/kg
  Time of greatest plasma concentration: 15 min
[3]; brain, IP 10 mg/kg
  Cl: 2920 mL/min/kg
[3]; [5]
  AUC: 650 ng·h/mL
  Cmax: 690 ng/mL
  clearance: 900 mL/min/kg
  half-life: 39 min
[3]; [6]
  AUC: 9150 ng·h/mL
  Cmax: 12400 ng/mL
  Tmax: 4.8 min
  half-life: 30 min
[3]; [7]
  AUC: 4980 ng·h/mL
  clearance: 117 mL/min/kg
[3]; [8]
  AUC: 190 ng·h/mL
  Cmax: 180 ng/mL
  Tmax: 15 min
  half-life: 49.8 min
[3]; [9]
  AUC: 220 ng·h/mL
  Cmax: 750 ng/mL
  clearance: 2630 mL/min/kg
  half-life: 12.6 min
[3]; [10]
  AUC: 4660 ng·h/mL
  Cmax: 7240 ng/mL
  Tmax: 4.8 min
  half-life: 42.6 min
[3]; [11]
  AUC: 1020 ng·h/mL
  Cmax: 5340 ng/mL
  clearance: 567 mL/min/kg
  half-life: 7.8 min
[3]; [12]
  AUC: 8060 ng·h/mL
  Cmax: 8360 ng/mL
  Tmax: 15 min
  half-life: 28.8 min
[3]; [13]
  AUC: 2830 ng·h/mL
  Cmax: 9680 ng/mL
  clearance: 200 mL/min/kg
  half-life: 12 min
[3]; [14]
  AUC: 150 ng·h/mL
  Cmax: 470 ng/mL
  Tmax: 4.8 min
  half-life: 14.4 min
[3]; [15]
  Cmax: 13000 ng/mL
  half-life: 15.6 min
[3]; [16]
  AUC: 110 ng·h/mL
  Cmax: 110 ng/mL
  Tmax: 4.8 min
  half-life: 51.6 min
[3]; female, mouse, plasma, IP 10 mg/kg vs IV 5 mg/kg, read-out: Intraperitoneal bioavailability
  bioavailability: 74%
[3]; [17]
  AUC: 70 ng·h/mL
  Cmax: 360 ng/mL
  clearance: 8200 mL/min/kg
  half-life: 8.4 min
[3]; [18]
  AUC: 11300 ng·h/mL
  Cmax: 23000 ng/mL
  Tmax: 4.8 min
  half-life: 24.6 min
[3]; [19]
  AUC: 1800 ng·h/mL
  Cmax: 4590 ng/mL
  clearance: 317 mL/min/kg
  half-life: 16.2 min
[3]; heart, IP 10 mg/kg
  Cl: 130 mL/min/kg
[3]; kidneys, IP 10 mg/kg
  Cl: 67 mL/min/kg
[3]; liver, IP 10 mg/kg
  Cl: 4100 mL/min/kg
[3]; lungs, IP 10 mg/kg
  Cl: 67 mL/min/kg
[3]; plasma, IP 10 mg/kg
  Cl: 5750 mL/min/kg
[3]; single bolus IV 5 mg/kg
  Concentration in the plasma for the first 30 minutes: up to 0.18 μg/mL
[3]; spleen, IP 10 mg/kg
  Cl: 50 mL/min/kg
